One data set addresses T1, NHE-1 (Oryctolagus cuniculus, UniProt P23791).
T1 construct: endogenous in cells; host or cells: rabbit platelets in platelet-rich plasma (male rabbits)
In words: NHE-1 inhibition assay on rabbit platelets (platelet shape change after acidification with sodium propionate, laser aggregometer). It is filed as cell-based.

In data set [1] the test system is primary peritoneal macrophages of C57BL/6J mice. Briefly: Interleukin-6 secretion (ELISA) from LPS-stimulated peritoneal macrophages. The format is cell-based. The procedure: (§1) Peritoneal macrophages (PM) were isolated from the peritoneal exudate of 30 male C57bl/6j mice. To accumulate PM, 1 ml of 3% peptone solution was injected intraperitoneally. After 3 days the mice were euthanized by cervical dislocation. Cells of peritoneal exudate were obtained by aseptically washing the abdominal cavity with 5 ml of sterile Hanks’s solution (+ 4-6 °C) without calcium and magnesium ions. The total number and viability of cells were assessed in a Goryaev counting chamber (Russia) with a 0.4% trypan blue staining (Sigma-Aldrich, USA). The cell concentration was adjusted to 1.0×10^6 cells/ml in DMEM (Gibco) supplemented with 2 mM L-glutamine (Gibco), 10% heat-inactivated fetal bovine serum (BioClot, Germany), 100 U/ml penicillin and […] streptomycin (Gibco) and plated 200 μl/well in 96-well transparent plates (SPL Life Sciences Co., Ltd., Korea). It was left for 2 h at 37°C in a humidified atmosphere with 5% CO2, after which the wells were washed to remove non-adherent cells. After 24 hours of incubation, 20 μl of the supernatant was removed and 20 μl of solutions of test compounds were added 30 min before E. coli O127:B8 LPS (100 ng/ml final concentration). Experiments were run in 3 independent replicates.
(§2) Cell supernatant was collected and centrifuged at 1000 g for 20 min in a 2-16PK Sigma centrifuge (Germany). The concentration of IL-6 was determined by ELISA using a commercial kit (Cloud-clone ELISA kit) with a microplate reader Infinite M200 PRO (Tecan, Austria).
(An ELISA detects its analyte on a solid surface through an enzyme-linked reagent.)

Another data set relates to IL-6 secretion. Described as above. It is filed as cell-based, mice. Conditions: male, C57BL/6J, mouse, primary peritoneal macrophages stimulated with LPS; CC50 versus IC50 of IL-6 secretion; read-out: selectivity of IL-6 inhibition over cytotoxicity. On the procedure:
as §1, §2

The nature of data set [2]: Solubility under the conditions of the platelet aggregation assay. Conditions: antiplatelet assay. It is filed as physicochemical. On the procedure:
Test compounds were dissolved in 99% DMSO (stock concentration 40 mM) and stored at –25 °C. If sediment or opalescence was detected, 5% Tween 20 (Merck) was added. Serial dilutions were prepared ex tempore in a media suitable for the particular study. Final concentration in samples: DMSO <0.25%, Tween 20 <0.025% (were added to control samples in equal concentrations).
Functional activity of platelets was determined on a two-channel laser analyzer of platelet aggregation "BIOLA-220 LA" (Russia) as described previously. The experiments were carried out on 6 male rabbits weighing 3.5–4 kg. To prepare platelet-rich plasma (PRP) venous blood was taken from the ear marginal vein of a rabbit, stabilized with a 3.8% sodium citrate solution in a ratio of 9:1 and centrifuged for 10 min at 1500 rpm. PRP (300 μL) and a solution of the test compound at a concentration of 100 μM were sequentially introduced into the cell of the aggregometer. The samples were incubated in thermostated cells of the aggregometer at 37 °C for 5 min. To induce aggregation adenosine-5-diphosphoric acid (ADP, Sigma, USA) at a final concentration of 5 μM, was added to the cuvette. Acetylsalicylic acid (Shandong Xinhua Pharmaceutical Co., Ltd., China) was used as a reference drug. Experiments were run in 5 independent replicates.

The test system of data set [3] is primary peritoneal macrophages of C57BL/6J mice. Briefly: Nitric oxide synthesis (nitrite, Griess reagent) in LPS-stimulated peritoneal macrophages. It is filed as cell-based. The settings on record: 100 μM. On the procedure: as §1
The accumulation of nitrite anion (a stable end product of NO decomposition produced by iNOS) in supernatants was determined using a standard Griess reagent. Briefly, 50 μl of supernatants collected 22 hours after incubation of PM with test and control compounds were mixed with 50 μl of 1% sulfonamide in 2.5% H3PO4 and 50 μl of 0.1% N-(1-naphthyl) ethylenediamine in 2,5% H3PO4. After incubation at 23 °C for 10 min in an orbital shaker, the optical density was determined at a wavelength of 550 nm with a microplate reader Infinite M200 PRO (Tecan, Austria).

For the next data set, the system named is ICR mice. Briefly: Tail suspension test (antidepressant activity). It is filed as in vivo. The settings on record: intragastrically 30 min before test, dose equimolar to 2.6 mg/kg amiloride. On the procedure:
The experiment was carried out on 36 male ICR mice weighing 22-25 g, divided into groups of 6 animals each under room lighting (300 lux). […] In experiments, test substances were administered intragastrically 30 min before the start of the test. Experimental groups received test compounds in an equimolar dose to the comparison drug amiloride. Animals of the remaining groups were treated with 2.6 mg/kg amiloride, 10 mg/kg amitriptyline, or 8 mg/kg imipramine. Distilled water was administered to the control group. The time of immobilization of the animals was recorded.

Data set [4] can be described thus: Cytotoxicity study (LDH activity in the medium) in peritoneal macrophages. The format is cell-based. Conditions: male, C57BL/6J, mouse, primary peritoneal macrophages; murine peritoneal macrophages, LDH. On the procedure:
as §1
(§3) The activity of lactate dehydrogenase (LDH) in a cell culture medium served as a marker of membrane permeability and cell death. Aliquotes of supernatants were taken after 24 h of inoculation with test compounds, mixed with 250 μl of […] NADH solution in 54 mM phosphate buffered saline (pH 7.5). Then, 25 μl of a 6.48 mM pyruvate solution was added to the mixture. The optical density was followed at a wavelength of 340 nm for 20 min. Conversion of optical density into cell viability was carried out according to a standard curve (DMSO-treated cells as 100% and 0.01% Triton X-100-treated cells as 0% viable cells).

The subject of data set [5] is primary peritoneal macrophages of C57BL/6J mice. The data set is described as above. It is filed as cell-based. Conditions: 100 μM, peritoneal macrophages. On the procedure:
as §1, §3

Entries after “also recorded” stand apart in the source; their conditions may differ.

We go through one molecule from article PMC8692498, “Synthesis and multifaceted pharmacological activity of novel quinazoline NHE-1 inhibitors” (Scientific Reports, 2021).

T1 sequence (P23791 whole entry): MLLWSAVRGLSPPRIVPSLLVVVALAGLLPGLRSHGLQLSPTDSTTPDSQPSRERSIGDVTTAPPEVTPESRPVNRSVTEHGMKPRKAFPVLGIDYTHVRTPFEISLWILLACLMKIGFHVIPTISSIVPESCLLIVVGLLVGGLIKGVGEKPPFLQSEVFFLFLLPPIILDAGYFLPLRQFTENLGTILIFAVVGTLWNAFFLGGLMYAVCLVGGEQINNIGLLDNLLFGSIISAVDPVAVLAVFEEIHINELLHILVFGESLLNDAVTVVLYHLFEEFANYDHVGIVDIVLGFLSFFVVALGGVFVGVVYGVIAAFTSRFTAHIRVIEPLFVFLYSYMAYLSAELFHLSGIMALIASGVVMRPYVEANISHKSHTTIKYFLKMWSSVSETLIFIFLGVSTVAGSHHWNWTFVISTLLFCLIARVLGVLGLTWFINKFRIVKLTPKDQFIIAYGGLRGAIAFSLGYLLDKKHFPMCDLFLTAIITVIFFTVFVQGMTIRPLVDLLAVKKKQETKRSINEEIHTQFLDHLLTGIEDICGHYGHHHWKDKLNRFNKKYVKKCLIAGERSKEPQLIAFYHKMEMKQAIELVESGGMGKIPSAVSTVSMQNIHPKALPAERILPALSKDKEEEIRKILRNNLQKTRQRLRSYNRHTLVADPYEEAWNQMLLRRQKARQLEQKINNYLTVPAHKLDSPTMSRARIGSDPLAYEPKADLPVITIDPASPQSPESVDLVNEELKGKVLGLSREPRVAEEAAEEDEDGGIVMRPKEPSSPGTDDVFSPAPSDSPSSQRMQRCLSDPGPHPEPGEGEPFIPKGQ

With `Cn1c(=O)n(Cc2nnc(N)[nH]2)c(=O)c2ccccc21` [Compound 3e, 3-[(5-Amino-4H-1,2,4-triazol-3-yl)methyl]-1-methylquinazoline-2,4(1H,3H)-dione], the IC50 against NHE-1 is 0.0058 µM; in data set [1] (Mus musculus, Peritoneal macrophage, LPS-stimulated murine macrophages, read-out: IC50 of IL-6 synthesis/secretion) it was 32.1 µM. Besides, the “secretion of interleukin 6” value in data set [1] (LPS-stimulated macrophages, screening (Fig. 4)) is given as “suppressed”. Further, the selectivity ratio with IL-6 secretion was in the range of 4 to 6. Moreover, the “solubility under assay conditions” value in data set [2] is recorded as “insoluble under assay conditions”. The “inhibition of the synthesis of nitric oxide” value in data set [3] is on record as “statistically significantly inhibit”. Also, the antidepressant activity entry in the data set on ICR mice is “antidepressant activity similar to amiloride; also recorded: antidepressant activity comparable with amiloride”. Half-maximal cytotoxicity in data set [4] (CC50 at 24 h) was put at 138 µM. In data set [5], the “effect on cell viability” value is “absence of a statistically significant effect on cell viability”.
